Data from paper PMC2680961, “Homologous desensitization of signalling by the alpha (α) isoform of the human thromboxane A2 receptor: A specific role for nitric oxide signalling” (Biochimica et Biophysica Acta, 2007).
Changes are numbered by the printed parent chain.

What was measured:
TPα^WT = molecular target: T1, TPα^WT (Homo sapiens, UniProt P21731); experiment: [3H]SQ29,548 radioligand binding, Scatchard analysis, HEK.TPα^WT
T1 construct: expressed in transfected cells
Experimental: Cells were harvested by centrifugation at 500×g at 4 °C for 5 min and washed three times with ice-cold Ca^2+/Mg^2+-free phosphate-buffered saline (PBS). TP radioligand binding assays were carried out at 30 °C for 30 min in 100 μl reactions in the presence of 0–40 nM [^3H] […] Protein determinations were carried out using the Bradford assay.
Radioligand binding and Scatchard analysis data were analysed using GraphPad Prisim V4.0 programme (GraphPad Software Inc., San Diego CA, USA). Statistical analyses were carried out using the unpaired Student's t test using the Statworks Analysis Package. p-values ≤ 0.01 indicated statistically significant differences.

TPα^S329,331A = molecular target: T2, TPα^S329,331A (Homo sapiens, UniProt P21731, S329A/S331A); experiment: Intracellular calcium mobilization, HEK.TPα^S329,331A cells; type: cell-based; conditions: for Δ[Ca2+]i, U46619-induced: HEK.TPα^S329,331A
T2 construct: expressed in transfected cells
T2 sequence (P21731 1-343 S329A/S331A): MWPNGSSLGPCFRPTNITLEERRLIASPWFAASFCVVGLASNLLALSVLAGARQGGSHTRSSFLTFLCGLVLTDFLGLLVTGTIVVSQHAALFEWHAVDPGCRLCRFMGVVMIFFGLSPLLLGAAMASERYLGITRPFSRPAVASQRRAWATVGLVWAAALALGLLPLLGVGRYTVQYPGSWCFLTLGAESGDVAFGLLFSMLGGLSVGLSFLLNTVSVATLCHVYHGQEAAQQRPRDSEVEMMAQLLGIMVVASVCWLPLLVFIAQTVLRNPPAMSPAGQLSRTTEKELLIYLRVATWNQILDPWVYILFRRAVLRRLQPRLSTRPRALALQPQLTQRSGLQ
Experimental: Measurement of intracellular calcium mobilization ([Ca^2+]i) in FURA2/AM preloaded HEK 293 cell lines (2 × 10^6 cells/dish), each transiently co-transfected with pADVA (10 μg), and pCMV:Gαq (25 μg), was carried out as previously described. To investigate the effect of GRK2/βARK1 on TP-mediated [Ca^2+]i mobilization, HEK.TPα or HEK.TPβ cells (2 × 10^6 cells/dish) were co-transfected with pADVA (10 μg), pCMV:Gαq (25 μg) along with pRK5:βARK1^495–689 (25 μg), encoding a dominant negative form of GRK2/βARK1[39]. Approximately 48 h post-transfection, cells were harvested by scraping, washed twice in ice-cold PBS and resuspended in HBSSHB (modified Ca^2+/Mg^2+-free Hank's buffered salt solution, containing […], pH 7.67, 0.1% bovine serum albumin (BSA)) buffer at 10^7 cells/ml and incubated in the dark with 5 μM FURA2/AM for 45 min at 37 °C. […] For each measurement of [Ca^2+]i mobilization, aliquots of cells were diluted to 0.825 × 10^6 cells/ml in HBSSHB, 1 mM CaCl2 and FURA2 fluorescence was recorded (2 ml aliquots of cells) at 37^ °C with gentle stirring with a Perkin Elmer-Cetus LS50-B spectrofluorometer at excitation wavelengths of 340 nm and 380 nm and emission wavelength of 510 nm, respectively.
(§1) Cells were stimulated with the TP agonist U46619 (1 μM) and changes in [Ca^2+]i mobilization were monitored as a function of time. To assess agonist-mediated homologous desensitization, cells (0.825 × 10^6 cells/ml; 2 ml per assay) were stimulated with 1 μM U46619 (Primary stimulation) or, as a control, with the vehicle for 4 min; thereafter, cells were collected by centrifugation (900×g, 5 min); were washed twice in 2 ml HBSSHB, 1 mM CaCl2; and finally resuspended in 2 ml HBSSHB,1 mM CaCl2 and were left to recover over various time intervals (ranging from 0 to 60 min); thereafter, cells re-stimulated with 1 μM U46619 (Secondary stimulation) and changes in [Ca^2+]i mobilization were monitored as a function of time. […]

TPα^S239A = molecular target: T3, TPα^S239A (Homo sapiens, UniProt P21731, S239A); experiment: Intracellular calcium mobilization, HEK.TPα^S239A cells; type: cell-based
T3 construct: expressed in transfected cells
T3 sequence (P21731 1-343 S239A): T2 sequence (P21731 1-343 S329A/S331A) with S239A, A329S, A331S
Experimental: Measurement of intracellular calcium mobilization ([Ca^2+]i) in FURA2/AM preloaded HEK 293 cell lines (2 × 10^6 cells/dish), each transiently co-transfected with pADVA (10 μg), and pCMV:Gαq (25 μg), was carried out as previously described. To investigate the effect of GRK2/βARK1 on TP-mediated [Ca^2+]i mobilization, HEK.TPα or HEK.TPβ cells (2 × 10^6 cells/dish) were co-transfected with pADVA (10 μg), pCMV:Gαq (25 μg) along with pRK5:βARK1^495–689 (25 μg), encoding a dominant negative form of GRK2/βARK1[39]. Approximately 48 h post-transfection, cells were harvested by scraping, washed twice in ice-cold PBS and resuspended in HBSSHB (modified Ca^2+/Mg^2+-free Hank's buffered salt solution, containing […], pH 7.67, 0.1% bovine serum albumin (BSA)) buffer at 10^7 cells/ml and incubated in the dark with 5 μM FURA2/AM for 45 min at 37 °C. Cells were collected by centrifugation (900×g, 5 min), washed once in an equal volume of HBSSHB, and were finally resuspended in HBSSHB buffer at 10^7 cells/ml and kept at room temperature in the dark for 40 min. For each measurement of [Ca^2+]i mobilization, aliquots of cells were diluted to 0.825 × 10^6 cells/ml in HBSSHB, 1 mM CaCl2 and FURA2 fluorescence was recorded (2 ml aliquots of cells) at 37^ °C with gentle stirring with a Perkin Elmer-Cetus LS50-B spectrofluorometer at excitation wavelengths of 340 nm and 380 nm and emission wavelength of 510 nm, respectively.
as §1
The vehicle had no effect on U46619-mediated [Ca^2+]i mobilization. Calibration of the signal was performed in each sample by adding 0.2% Triton X-100 to obtain the maximal fluorescence ratio (Rmax) and then 1 mM EGTA to obtain the minimal fluorescence ratio (Rmin). […] Changes in [Ca^2+]i mobilization were determined by measuring peak rises in [Ca^2+]i mobilized (Δ[Ca^2+]i) and were calculated as mean changes in Δ[Ca^2+]i ± S.E.M. (nM).

T1 sequence (P21731 whole entry): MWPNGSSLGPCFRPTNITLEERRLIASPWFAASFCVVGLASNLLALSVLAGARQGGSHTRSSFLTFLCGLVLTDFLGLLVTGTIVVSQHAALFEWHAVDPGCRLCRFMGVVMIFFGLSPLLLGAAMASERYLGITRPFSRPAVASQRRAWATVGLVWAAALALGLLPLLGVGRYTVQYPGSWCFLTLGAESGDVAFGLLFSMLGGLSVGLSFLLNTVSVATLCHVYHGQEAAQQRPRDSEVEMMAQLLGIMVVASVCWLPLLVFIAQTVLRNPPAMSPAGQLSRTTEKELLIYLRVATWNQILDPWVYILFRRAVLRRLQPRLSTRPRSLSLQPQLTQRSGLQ

Bmax (pmol/mg protein ± S.E.M.) (TPα^WT) [pmol/mg protein]	Δ[Ca2+]i, U46619-induced (TPα^S329,331A; primary 1 μM U46619 4 min) [nM]	Δ[Ca2+]i, U46619-induced (TPα^S329,331A; secondary 1 μM U46619 at 15 min) [nM]	secondary U46619 [Ca2+]i response relative to primary response (TPα^S329,331A; printed as TPα^S239,331A, Fig. 6A and B) [%]	Δ[Ca2+]i, U46619-induced (TPα^S239A; + GRK^DN, primary 1 μM U46619) [nM]	Δ[Ca2+]i, U46619-induced (TPα^S239A; + GRK^DN, secondary 1 μM U46619 at 15 min) [nM]	Δ[Ca2+]i, U46619-induced (TPα^S239A; − GRK^DN, primary 1 μM U46619) [nM]	Δ[Ca2+]i, U46619-induced (TPα^S239A; − GRK^DN, secondary 1 μM U46619 at 15 min) [nM]	Structure (SMILES)
4.52 ± 0.05	–	–	–	–	–	–	–	O=C(O)CCC/C=C\C[C@@H]1[C@H](CNNC(=O)Nc2ccccc2)[C@H]2CC[C@@H]1O2 [SQ29,548]
–	176 ± 9.4	63 ± 4.4	36	180 ± 9	0	176 ± 10.3	0	CCCCC[C@H](O)/C=C/[C@@H]1[C@@H](C/C=C\CCCC(=O)O)[C@H]2CO[C@@H]1C2 [U46619]
